In patent US10941384B2, “Compositions and methods for promoting the generation of endocrine cells” (President and Fellows of Harvard College, priority 2013, dated 2021):

Key:
pancreatic progenitors = conditions: previously reported, US2011/0070645; cited from earlier work
[1] = test system: Human NGN3 (HUES 8-pancreatic progenitor population); assay: High-content screen 1 and efficacy curve: NGN3+ cells by immunofluorescence (Cellomics); type: cell-based
Procedure: hESC culture and differentiation. Protocol 1. HUES 8 and H1 cells are routinely cultured on irradiated MEF feeder cells in KnockOut DMEM (Invitrogen) supplemented with 10% (v/v) KnockOut serum replacement (Invitrogen), 0.5% (v/v) human plasma fraction (Talecris Biotech), 2 mM L-glutamine (Invitrogen), 1.1 mM 2-mercaptoethanol (Invitrogen), 1 mM nonessential amino acids (Invitrogen), 1× penicillin/streptomycin (PS, Invitrogen) and 10 ng/ml bovine FGF (Invitrogen). Cells are passaged at the ratio of 1:6 every 5 d by using 0.05% trypsin (Invitrogen). To generate the HUES-pancreatic progenitor population, HUES cells were cultured on MEF feeder cells until 80-90% confluent, then treated with 25 ng/ml Wnt3a (R&D systems)+100 ng/ml activin A (R&D systems) in RPMI (Invitrogen) supplemented with 1×L-glutamine and 1×PS for 1 d, and then 100 ng/ml activin A in RPMI supplemented with 1×L-glutamine, 1×PS and 0.2% (v/v) fetal bovine serum (FBS, Invitrogen). The medium was changed 2 d later to 50 ng/ml/FGF7 (R&D systems) in RPMI supplemented with 1×L-glutamine, 1×PS and 2% (v/v) FBS, and maintained for an additional 2 d. Cells were then transferred to 100 ng/ml Noggin (R&D systems)+0.25 μM SANT-1 (Sigma)+2 μM retinoic acid (Sigma) in DMEM supplemented with 1×L-glutamine, 1×PS and 1×B27 (Invitrogen) and cultured for an 4 d, followed by treatment with 100 ng/ml Noggin (R&D systems)+1 μM ALK5 inhibitor (Enzo)+100 nM PDBu (Sigma) in DMEM supplemented with 1×L-glutamine, 1×PS and 1×B27 (Invitrogen) and cultured for an additional 4 d. All HUES-pancreatic progenitor cells were derived using the same protocol as described above. The percentage and number of PDX1^+ cells and NGN3^+ cells were analyzed with the Cellomics high content screening system (Thermo Scientific). PKCβ inhibitor was purchased from Calbiochem.
High-content screen 1. […]
Screen 1: Generation of efficacy curve. […] Six days later, the cells were stained with NGN3 antibody and the plates were analyzed with the Cellomics high content screening system (Thermo Scientific). […]

[2] = test system: NGN3 mRNA (HUES 8-derived pancreatic progenitor cells); assay: qRT-PCR of NGN3 expression in chemically-treated populations; type: cell-based, human; conditions: quantitative RT-PCR, HUES 8-derived cells
Excerpt: [drawing 11] was selected for follow up studies due to the high efficacy and low toxicity (FIG. 1C).

[3] = test system: human c-peptide in serum of SCID-Beige mice; assay: Kidney capsule transplantation of treated cells, glucose-stimulated human c-peptide ELISA; type: in vivo; conditions: treated cells under kidney capsule of SCID-beige mice, 12 weeks, 30 mins after glucose
Excerpt: FIGS. 2A-2B show the characterization of cells derived by PKC inhibitor treatment. […] Cells were stained with insulin, c-peptide, glucagon, UCN3, PDX1 and NKX6-1 antibodies. All insulin-expressing cells express c-peptide. Few insulin-expressing cells express NKX6-1 or UCN3, markers of mature human β cells. Many insulin-expressing cells co-express another endocrine marker glucagon. Scale bars are 100 μm. […] Scheme beginning with cells that have been treated with hit chemicals, e.g., PKC inhibitors, comprises a population containing many NGN3-expressing cells. The HUES 8-derived pancreatic progenitor cells treated with DMSO were used as negative controls. […] 12 weeks later, the mouse sera collected at fasting condition and at 30 mins after glucose stimulation were analyzed using ELISA to measure human c-peptide expression. […]
Kidney capsule implantation and tissue preparation. […] The c-peptide levels in mouse sera were measured using the human c-peptide ELISA kit (Alpco Diagnostics or Millipore).
The inventors next investigated the developmental potential of cell populations enriched for NGN3^+ cells that were induced by PKC inhibition. […] More c-peptide (a byproduct of insulin biosynthesis)-expressing cells were detected in the derivatives of PKCβ inhibitor treated cells (12.5 5.8%) than the derivatives of control cells (DMSO-treated, 1.2 1.2%; FIG. 2b). […]

EC50 ([1]; Homo sapiens, 144 h, HUES 8-pancreatic progenitor population, six days, FIG. 1D, read-out: EC50, total number of NGN3+ cells) | Compound | generation of pancreatic progenitors (pancreatic progenitors) | percentage of NGN3+ cells, fold higher than the DMSO-treated controls ([1]; HUES 8, at maximum) | toxicity in screen 1 ([1]; reason for selection for follow up) | expression of NGN3 mRNA compared to DMSO controls [2] | human c-peptide levels in the serum, glucose injection versus fasting [3]
 | (−)-Indolactam V | promotes the generation of pancreatic progenitors |  |  |  | 
7.8 µM | O=C1NC(=O)C(c2cn(CCCn3ccnc3)c3ccccc23)=C1Nc1ccccc1 [PKCβ inhibitor] |  | ~7 fold | low toxicity | higher expression of NGN3 mRNA | significantly higher upon glucose injection than during fasting
